Measured values as given in patent US20240257668A1, “3D ARTIFICIAL SKIN MODEL AND METHOD FOR PRODUCING THE SAME” (Korea Advanced Institute of Science and Technology, priority 2023, published 2024).

B1: transforming growth factor-beta 2 (protein, UniProt P61812 303-414, looked up)
Transforming growth factor …: ALDAAYCFRNVQDNCCLRPLYIDFKRDLGWKWIHEPKGYNANFCAGACPYLWSSDTQHSRVLSLYNTINPEASASPCCVSQDLEPLTILYYIGKTPKIEQLSNMIVKSCKCS

What was measured:
[1] = test system: stromal layer of the basement membrane+stromal layer artificial skin model; assay: Inhibition of tissue contraction of basement membrane+stromal layer artificial skin model by blebbistatin; assay type: cell-based
Method: Additionally, the basement membrane+stromal layer model without epithelial cells (Example 1-4) was produced and incubated for 24 hours under conditions of 37° C. and 5% CO2.
After incubation, each sample was imaged with a confocal fluorescence microscope at a wavelength of 488 nm, and the images were synthesized into two-dimensional images by max intensity projection using the ImageJ imaging program. […] However, it could be seen that, in the sample in which tissue contraction had already occurred, tissue contraction was maintained even after subsequent treatment with blebbistatin.

[2] = test system: stromal cells (fibroblasts) in the stromal layer; assay: Tissue contraction of basement membrane+stromal layer artificial skin model incubated with TGF-β2; assay type: cell-based; conditions: 10 ng/ml TGF-β2 added to DMEM + 10% FBS + 1% P/S; 96 hours, 37° C., 5% CO2; model without epithelial cells (FIGS. 5 and 6)
Method: In order to form wavy ridges in the stromal layer corresponding to the dermal layer of normal skin tissue, tissue contraction is required at the stromal layer boundary that is in contact with the basement membrane. In order to confirm whether the artificial skin model of the present disclosure can mimic this function, a basement membrane+stromal layer model without epithelial cells (Example 1-4) was produced, incubated under conditions of 37° C. and 5% CO2 for 96 hours. Incubation was performed using DMEM containing 10% FBS (fetal bovine serum) and 1% P/S (penicillin/streptomycin), and 10 ng/ml of TGF-β2 (transforming growth factor-beta 2) was additionally added to the test group. FIGS. 5 and 6, respectively, show the results of imaging the incubated model and the results of quantifying the image size relative to the control strain (0) based on 6 mm. The physical property was measured with Anton Paar MCR 92. […] This is believed to be because TGF-β2 increased contraction by activating stromal cells (fibroblasts) in the stromal layer. Therefore, in the following study, a medium supplemented with 10 ng/ml of TGF-β2 was used.

Molecule | tissue contraction at the stromal layer boundary ([1]; 10 μM blebbistatin in control medium (with 10 ng/ml TGF-β2) from the beginning, 24 hours (group Bleb; FIG. 7)) | tissue contraction at the stromal layer boundary ([1]; 12 hours control medium, then 12 hours with 10 μM blebbistatin, tissue contraction already occurred (group Bleb after 12 hours; FIG. 7)) | tissue contraction at the boundary of the stromal layer [2]
Cc1ccc2c(c1)C(=O)C1(O)CCN(c3ccccc3)C1=N2 (stereo not drawn) [blebbistatin] | inhibited | maintained | –
B1 | – | – | well induced
